Laboratory results published in the supplement of paper PMC10307832.

What was measured:
Test in all cases: relative viability (nuclei count vs DMSO), 5 days (fraction); higher = more cells survive
AGI-6780 = compound: O=C(Nc1cccc(C(F)(F)F)c1)Nc1cc(S(=O)(=O)NC2CC2)ccc1-c1ccsc1 [AGI-6780]
Method in brief: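 Five library-drug doses spaced by √10 were pinned onto vehicle-anchored 1536-well plates of lung cancer cell lines that had been kept overnight at 37 °C. Cells went 5 days without medium change, then were fixed, permeabilised and Hoechst-stained together, imaged at 4× and counted by MetaXpress. Viability is the ratio of treated-well to vehicle-well nuclei, taken as a median over plates. Plates required control CV below 25% and at least one doubling.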

AGI-6780 + Tozasertib = compound: O=C(Nc1cccc(C(F)(F)F)c1)Nc1cc(S(=O)(=O)NC2CC2)ccc1-c1ccsc1 [AGI-6780] + Cc1cc(Nc2cc(N3CCN(C)CC3)nc(Sc3ccc(NC(=O)C4CC4)cc3)n2)n[nH]1 [Tozasertib] (partner 0.1 µM)
Method in brief: (§1)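 Dosing by pin tool came one day after lung cancer cell lines were seeded in 1536-well plates, using either one drug or a fixed anchor-drug dose plus five library-drug doses (not always all listed) in √10 steps. After 5 days, nuclei were counted on 4× images. Relative viability is treated-well nuclei count divided by vehicle-well nuclei count, and values are medians of duplicate plates.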

AGI-6780 + Trametinib = compound: O=C(Nc1cccc(C(F)(F)F)c1)Nc1cc(S(=O)(=O)NC2CC2)ccc1-c1ccsc1 [AGI-6780] + CC(=O)Nc1cccc(-n2c(=O)n(C3CC3)c(=O)c3c(Nc4ccc(I)cc4F)n(C)c(=O)c(C)c32)c1 [Trametinib] (partner 0.02 µM)
Method in brief: as §1

AGI-6780 + AZD7762 = compound: O=C(Nc1cccc(C(F)(F)F)c1)Nc1cc(S(=O)(=O)NC2CC2)ccc1-c1ccsc1 [AGI-6780] + NC(=O)Nc1cc(-c2cccc(F)c2)sc1C(=O)N[C@H]1CCCNC1 [AZD7762] (partner 0.2 µM)
Method in brief: as §1

Row | Cell Line | relative viability (AGI-6780; 0.08 µM) | relative viability (AGI-6780; 0.253 µM) | relative viability (AGI-6780; 0.8 µM) | relative viability (AGI-6780; 2.53 µM) | relative viability (AGI-6780; 8 µM) | relative viability (AGI-6780 + Tozasertib; first compound 0.08 µM) | relative viability (AGI-6780 + Tozasertib; first compound 0.253 µM) | relative viability (AGI-6780 + Tozasertib; first compound 0.8 µM) | relative viability (AGI-6780 + Tozasertib; first compound 2.53 µM) | relative viability (AGI-6780 + Tozasertib; first compound 8 µM) | relative viability (AGI-6780 + Trametinib; first compound 0.08 µM) | relative viability (AGI-6780 + Trametinib; first compound 0.253 µM) | relative viability (AGI-6780 + Trametinib; first compound 0.8 µM) | relative viability (AGI-6780 + Trametinib; first compound 2.53 µM) | relative viability (AGI-6780 + Trametinib; first compound 8 µM) | relative viability (AGI-6780 + AZD7762; first compound 0.08 µM) | relative viability (AGI-6780 + AZD7762; first compound 0.253 µM) | relative viability (AGI-6780 + AZD7762; first compound 0.8 µM) | relative viability (AGI-6780 + AZD7762; first compound 2.53 µM) | relative viability (AGI-6780 + AZD7762; first compound 8 µM)
1 | HARA | 1.04 | 1.15 | 1.02 | 0.942 | 1.17 | 0.0824 | 0.106 | 0.114 | 0.0867 | 0.111 | 1.02 | 0.638 | 0.685 | 0.707 | 0.628 | 0.541 | 0.611 | 0.223 | 0.367 | 0.313
2 | H3255 | 0.956 | 1.03 | 1.04 | 0.826 | 0.97 | 0.593 | 0.52 | 0.462 | 0.585 | 0.552 | 0.595 | 0.592 | 0.668 |  | 0.609 | 0.834 | 0.918 | 1.05 | 1.01 | 0.875
3 | SK-LU-1 | 1.05 | 1.04 | 0.777 | 0.945 | 1.19 | 0.309 | 0.318 |  | 0.279 | 0.327 | 0.614 | 0.537 | 0.368 | 0.651 | 0.497 |  |  |  |  | 
4 | NCI-H1793 | 1.19 | 1.08 | 1.03 | 0.768 | 0.897 | 0.355 | 0.318 | 0.351 | 0.332 | 0.312 | 0.393 | 0.359 | 0.479 | 0.416 | 0.423 | 0.747 | 0.517 | 0.703 | 0.36 | 0.409
5 | EMC-BAC-2 |  | 1.01 | 1.01 | 0.775 | 1.05 | 0.278 | 0.295 | 0.249 | 0.253 | 0.324 |  | 0.909 | 0.896 | 0.752 | 0.842 |  | 1.15 | 1.16 | 0.877 | 1.02
6 | NCI-H2347 | 1.07 | 1.02 | 0.743 | 1.06 | 1.07 | 0.596 | 0.644 | 0.518 | 0.373 | 0.644 | 0.276 | 0.289 | 0.278 | 0.287 | 0.274 | 0.766 | 0.78 | 0.538 | 0.867 | 0.929
7 | EPLC-272H | 0.774 | 1.15 | 1.12 | 0.807 | 0.927 |  | 0.307 | 0.281 | 0.187 | 0.257 | 0.285 | 0.328 | 0.291 | 0.254 | 0.312 | 0.2 | 0.369 | 0.345 | 0.278 | 0.219
8 | LU99A | 0.975 | 0.928 | 0.987 | 0.839 | 0.931 | 0.237 | 0.275 | 0.294 | 0.237 | 0.299 | 0.547 | 0.572 | 0.431 | 0.44 | 0.534 | 0.404 | 0.422 | 0.45 | 0.345 | 0.421
9 | LXF-289 | 0.994 | 1.01 | 1.02 | 1.13 | 0.984 | 0.201 | 0.225 | 0.152 | 0.131 | 0.25 | 0.722 | 0.683 | 0.657 | 0.74 | 0.683 | 1.16 | 1.17 | 1.11 | 1.37 | 0.991
10 | NCI-H1395 | 0.928 | 1 | 1.09 | 0.768 | 0.97 | 0.778 | 0.774 | 0.893 | 0.666 | 0.674 | 0.984 | 1.01 | 1.04 | 0.975 | 1.06 | 0.366 | 0.4 | 0.412 | 0.428 | 0.387
11 | NCI-H520 | 1.11 | 1.04 | 1.09 | 0.819 | 1.04 | 0.486 | 0.441 | 0.426 | 0.327 | 0.446 | 0.652 | 0.628 | 0.58 | 0.593 | 0.666 |  |  |  |  | 
12 | 201T | 0.996 | 1 | 0.997 | 0.989 | 0.995 | 0.916 | 0.95 | 0.938 | 0.835 | 0.968 | 0.705 | 0.731 | 0.715 | 0.72 | 0.773 | 0.612 | 0.577 | 0.565 | 0.535 | 0.656
13 | NCI-H1944 | 1.02 | 0.975 | 1.02 |  | 1.06 | 0.252 | 0.27 | 0.247 |  | 0.242 | 0.458 | 0.417 | 0.463 |  | 0.425 | 0.538 | 0.516 | 0.515 |  | 0.55
14 | NCI-H3122 | 1 | 1.03 | 1.04 | 1.02 | 1.07 | 0.373 | 0.398 | 0.445 | 0.298 | 0.389 | 0.212 | 0.261 | 0.239 | 0.208 | 0.329 | 0.983 | 1.08 | 1 | 0.91 | 1.05
15 | NCI-H1734 | 0.945 | 1.07 | 1 | 0.692 | 1.06 | 0.22 | 0.294 | 0.246 | 0.242 | 0.268 | 0.74 | 0.646 | 0.63 | 0.474 | 0.758 | 0.634 | 0.589 | 0.618 | 0.451 | 0.606
16 | NCI-H1792 | 0.856 | 1.22 | 0.946 | 0.727 | 0.986 |  |  |  |  |  | 0.532 | 0.332 | 0.611 |  | 0.483 | 1.05 | 0.596 | 0.769 |  | 0.752
17 | NCI-H2126 | 1.06 | 1.07 | 0.981 | 0.796 | 1.08 | 0.82 | 0.838 | 0.89 | 0.726 | 0.857 | 0.613 | 0.601 | 0.507 | 0.479 | 0.566 | 1.03 | 1.08 | 0.989 | 0.97 | 1.08
